Laboratory results: ChEMBL document CHEMBL1201862, “PubChem BioAssay data set” (2004)
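Following 48 hours of exposure in 96-well plates, responses at five concentrations were used to interpolate endpoints linearly. GI50 marks 50% less growth.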 Active and inactive are the calls of the source. Cut-off read from the data, not from the text of the source: active = GI50 up to about 1.1 µM and inactive = higher.

Tests used:
Experiment in all cases: NCI tumour cell line growth inhibition, 48 h
OVCAR-5 = system: OVCAR-5
SK-MEL-2 = system: SK-MEL-2
TK-10 = system: TK-10
SNB-75 = system: SNB-75
SK-MEL-5 = system: SK-MEL-5
SN12C = system: SN12C
NCI-H522 = system: NCI-H522
HCC 2998 = system: HCC 2998
Malme-3M = system: Malme-3M
CAKI-1 = system: CAKI-1
COLO 205 = system: COLO 205
HT-29 = system: HT-29
HL-60 = system: HL-60
A549 = system: A549
KM12 = system: KM12
M14 = system: M14
UACC-257 = system: UACC-257
MOLT-4 = system: MOLT-4
HCT-116 = system: HCT-116

SMILES | GI50 (OVCAR-5) | GI50 (SK-MEL-2) | GI50 (TK-10) | GI50 (SNB-75) | GI50 (SK-MEL-5) | GI50 (SN12C) | GI50 (NCI-H522) | GI50 (HCC 2998) | GI50 (Malme-3M) | GI50 (CAKI-1) | GI50 (COLO 205) | GI50 (HT-29) | GI50 (HL-60) | GI50 (A549) | GI50 (KM12) | GI50 (M14) | GI50 (UACC-257) | GI50 (MOLT-4) | GI50 (HCT-116)
COC(=O)C(Cl)=C1CC1 | > 100 µM (inactive) | 32.1 µM (inactive) | 36.7 µM (inactive) | 38.4 µM (inactive) | 28.5 µM (inactive) | 41.8 µM (inactive) | 17.6 µM (inactive) | 31.7 µM (inactive) | 21.1 µM (inactive) | 17.9 µM (inactive) | 19.9 µM (inactive) | 34.2 µM (inactive) | 19.7 µM (inactive) | > 100 µM (inactive) | 37 µM (inactive) | 16.2 µM (inactive) | 31.6 µM (inactive) | 17.7 µM (inactive) | –
N#CC1CCCCCCCCCCC(=O)N(CCCl)C1=O (stereo unspecified) | > 100 µM (inactive) | > 100 µM (inactive) | > 100 µM (inactive) | > 100 µM (inactive) | > 100 µM (inactive) | > 100 µM (inactive) | > 100 µM (inactive) | > 100 µM (inactive) | > 100 µM (inactive) | > 100 µM (inactive) | > 100 µM (inactive) | > 100 µM (inactive) | > 100 µM (inactive) | > 100 µM (inactive) | > 100 µM (inactive) | > 100 µM (inactive) | > 100 µM (inactive) | > 100 µM (inactive) | –
O=C(O)C1=Cc2cccc3cccc(c23)C1=O | > 100 µM (inactive) | > 100 µM (inactive) | > 100 µM (inactive) | > 100 µM (inactive) | > 100 µM (inactive) | > 100 µM (inactive) | > 100 µM (inactive) | > 100 µM (inactive) | > 100 µM (inactive) | > 100 µM (inactive) | > 100 µM (inactive) | > 100 µM (inactive) | > 100 µM (inactive) | > 100 µM (inactive) | > 100 µM (inactive) | > 100 µM (inactive) | > 100 µM (inactive) | > 100 µM (inactive) | > 100 µM (inactive)
CCOC(C)C(/C=N/NC(N)=S)=NNC(N)=S (stereo unspecified) [GLOXAZONE] | > 100 µM (inactive) | 29.1 µM (inactive) | > 100 µM (inactive) | 40.3 µM (inactive) | 48.3 µM (inactive) | > 100 µM (inactive) | 26.2 µM (inactive) | > 100 µM (inactive) | 92.3 µM (inactive) | > 100 µM (inactive) | > 100 µM (inactive) | – | 0.0531 µM (active) | > 100 µM (inactive) | > 100 µM (inactive) | – | < 0.0411 µM (active) | < 0.0254 µM (active) | –
